ChEMBL document CHEMBL6134868, “Novel Aryl Sulfonium Modification on Vancomycin to Tackle MRSA and VRE In Vitro and In Vivo through Dual Enhanced Cell-Wall and Membrane Inhibition” (J Med Chem, 2025)
In brackets after ≈: the same amount, converted by molar mass.

Assays:
Assay type in all cases: functional
Conditions in all cases: time 16-24 hrs
Klebsiella pneumoniae = experiment: Antibacterial activity against Klebsiella pneumoniae KP-1 incubated for 16 to 24 hrs by broth microdilution assay
Staphylococcus aureus [1] = experiment: Antibacterial activity against vancomycin-intermediate Staphylococcus aureus Mu50 incubated for 16 to 24 hrs by broth microdilution assay
Enterococcus faecium [2] = experiment: Antibacterial activity against vancomycin-resistant Enterococcus faecium Efm-HS-vb02 harboring VanB phenotype incubated for 16 to 24 hrs by broth microdilution assay
Pseudomonas aeruginosa = experiment: Antibacterial activity against Pseudomonas aeruginosa PAO1 incubated for 16 to 24 hrs by broth microdilution assay
Enterococcus faecium [3] = experiment: Antibacterial activity against vancomycin-resistant Enterococcus faecium Efm-HS-vb01 harboring VanB phenotype incubated for 16 to 24 hrs by broth microdilution assay
Enterococcus faecium [4] = experiment: Antibacterial activity against vancomycin-resistant Enterococcus faecium Efm-HS-0649 harboring VanA phenotype incubated for 16 to 24 hrs by broth microdilution assay
Staphylococcus aureus [5] = experiment: Antibacterial activity against methicillin-resistant Staphylococcus aureus USA300 LAC incubated for 16 to 24 hrs by broth microdilution assay
Enterococcus faecium [6] = experiment: Antibacterial activity against vancomycin-resistant Enterococcus faecium Efm-HS-08257 harboring VanM phenotype incubated for 16 to 24 hrs by broth microdilution assay
Acinetobacter baumannii [7] = experiment: Antibacterial activity against Acinetobacter baumannii ATCC19606 incubated for 16 to 24 hrs by broth microdilution assay
Escherichia coli = experiment: Antibacterial activity against Escherichia coli AB1157 incubated for 16 to 24 hrs by broth microdilution assay
Acinetobacter baumannii [8] = experiment: Antibacterial activity against carbapenem-resistant Acinetobacter baumannii CRAB-1 clinical isolate incubated for 16 to 24 hrs by broth microdilution assay

**Q.** Which MIC (Klebsiella pneumoniae) does the source give for `CN[C@H](CC(C)C)C(=O)N[C@H]1C(=O)N[C@@H](CC(N)=O)C(=O)N[C@H]2C(=O)N[C@H]3C(=O)N[C@H](C(=O)N[C@H](C(=O)NCCC[S+](C)CC(O)COc4ccccc4Cl)c4cc(O)cc(O)c4-c4cc3ccc4O)[C@H](O)c3ccc(c(Cl)c3)Oc3cc2cc(c3O[C@@H]2O[C@H](CO)[C@@H](O)[C@H](O)[C@H]2O[C@H]2C[C@](C)(N)[C@H](O)[C@H](C)O2)Oc2ccc(cc2Cl)[C@H]1O.O=C([O-])C(F)(F)F` (stereo not given in full) here?
**A.** > 128 µg/mL

**Q.** And the MIC (Staphylococcus aureus [1])?
**A.** 1 µg/mL

**Q.** What about the MIC (Enterococcus faecium [2]) of the same molecule?
**A.** 2 µg/mL

**Q.** What about the MIC (Pseudomonas aeruginosa) of the same molecule?
**A.** > 128 µg/mL

**Q.** And the MIC (Enterococcus faecium [3])?
**A.** 8 µg/mL

**Q.** And the MIC (Enterococcus faecium [4])?
**A.** 16 µg/mL

**Q.** And the MIC (Staphylococcus aureus [5])?
**A.** 0.25 µg/mL

**Q.** What about the MIC (Enterococcus faecium [6]) of the same molecule?
**A.** 8 µg/mL

**Q.** What about the MIC (Acinetobacter baumannii [7]) of the same molecule?
**A.** 64 µg/mL

**Q.** And the MIC (Escherichia coli)?
**A.** 16 µg/mL

**Q.** What about the MIC (Acinetobacter baumannii [8]) of the same molecule?
**A.** > 128 µg/mL

**Q.** With `CC(C)C[C@H](C(=O)N[C@H]1C(=O)N[C@@H](CC(N)=O)C(=O)N[C@H]2C(=O)N[C@H]3C(=O)N[C@H](C(=O)N[C@H](C(=O)O)c4cc(O)cc(O)c4-c4cc3ccc4O)[C@H](O)c3ccc(c(Cl)c3)Oc3cc2cc(c3O[C@@H]2O[C@H](CO)[C@@H](O)[C@H](O)[C@H]2O[C@H]2C[C@](C)(N)[C@H](O)[C@H](C)O2)Oc2ccc(cc2Cl)[C@H]1O)N(C)CCC[S+](C)CC(O)COc1ccccc1.O=C([O-])C(F)(F)F` (stereo not given in full) as the molecule, how does the MIC (Klebsiella pneumoniae) read?
**A.** > 128 µg/mL

**Q.** And the MIC (Staphylococcus aureus [1])?
**A.** 8 µg/mL

**Q.** And the MIC (Enterococcus faecium [2])?
**A.** 32 µg/mL

**Q.** What about the MIC (Pseudomonas aeruginosa) of the same molecule?
**A.** > 128 µg/mL

**Q.** What about the MIC (Enterococcus faecium [3]) of the same molecule?
**A.** 64 µg/mL

**Q.** And the MIC (Enterococcus faecium [4])?
**A.** > 128 µg/mL

**Q.** What about the MIC (Staphylococcus aureus [5]) of the same molecule?
**A.** 2 µg/mL

**Q.** And the MIC (Enterococcus faecium [6])?
**A.** 128 µg/mL

**Q.** What about the MIC (Acinetobacter baumannii [7]) of the same molecule?
**A.** > 128 µg/mL

**Q.** And the MIC (Escherichia coli)?
**A.** > 128 µg/mL

**Q.** What about the MIC (Acinetobacter baumannii [8]) of the same molecule?
**A.** > 128 µg/mL

**Q.** How did the MIC (Klebsiella pneumoniae) turn out when `CN[C@H](CC(C)C)C(=O)N[C@H]1C(=O)N[C@@H](CC(N)=O)C(=O)N[C@H]2C(=O)N[C@H]3C(=O)N[C@H](C(=O)N[C@H](C(=O)O)c4cc(O)c(CNCCCSCC(O)COc5ccc(-c6ccc(C(F)(F)F)cc6)cc5)c(O)c4-c4cc3ccc4O)[C@H](O)c3ccc(c(Cl)c3)Oc3cc2cc(c3O[C@@H]2O[C@H](CO)[C@@H](O)[C@H](O)[C@H]2O[C@H]2C[C@](C)(N)[C@H](O)[C@H](C)O2)Oc2ccc(cc2Cl)[C@H]1O` (stereo not given in full) was run?
**A.** > 128 µg/mL

**Q.** And the MIC (Staphylococcus aureus [1])?
**A.** 1 µg/mL (≈ 0.541 µM)

**Q.** What about the MIC (Enterococcus faecium [2]) of the same molecule?
**A.** 2 µg/mL (≈ 1.08 µM)

**Q.** And the MIC (Pseudomonas aeruginosa)?
**A.** > 128 µg/mL

**Q.** And the MIC (Enterococcus faecium [3])?
**A.** 4 µg/mL (≈ 2.17 µM)

**Q.** And the MIC (Enterococcus faecium [4])?
**A.** 4 µg/mL (≈ 2.17 µM)

**Q.** And the MIC (Staphylococcus aureus [5])?
**A.** 0.125 µg/mL (≈ 0.0677 µM)

**Q.** And the MIC (Enterococcus faecium [6])?
**A.** 2 µg/mL (≈ 1.08 µM)

**Q.** What about the MIC (Acinetobacter baumannii [7]) of the same molecule?
**A.** 32 µg/mL (≈ 17.3 µM)

**Q.** What about the MIC (Escherichia coli) of the same molecule?
**A.** > 128 µg/mL

**Q.** What about the MIC (Acinetobacter baumannii [8]) of the same molecule?
**A.** 128 µg/mL (≈ 69.3 µM)

**Q.** Which MIC (Klebsiella pneumoniae) does the source give for `CN[C@H](CC(C)C)C(=O)N[C@H]1C(=O)N[C@@H](CC(N)=O)C(=O)N[C@H]2C(=O)N[C@H]3C(=O)N[C@H](C(=O)N[C@H](C(=O)O)c4cc(O)cc(O)c4-c4cc3ccc4O)[C@H](O)c3ccc(c(Cl)c3)Oc3cc2cc(c3O[C@@H]2O[C@H](CO)[C@@H](O)[C@H](O)[C@H]2O[C@H]2C[C@](C)(NCCC[S+](C)C[C@H](O)COc3ccccc3)[C@H](O)[C@H](C)O2)Oc2ccc(cc2Cl)[C@H]1O.O=C([O-])C(F)(F)F` (stereo not given in full) here?
**A.** > 128 µg/mL

**Q.** And the MIC (Staphylococcus aureus [1])?
**A.** 1 µg/mL

**Q.** What about the MIC (Enterococcus faecium [2]) of the same molecule?
**A.** 4 µg/mL

**Q.** And the MIC (Pseudomonas aeruginosa)?
**A.** > 128 µg/mL

**Q.** And the MIC (Enterococcus faecium [3])?
**A.** 8 µg/mL

**Q.** And the MIC (Enterococcus faecium [4])?
**A.** 16 µg/mL

**Q.** And the MIC (Staphylococcus aureus [5])?
**A.** 0.125 µg/mL

**Q.** And the MIC (Enterococcus faecium [6])?
**A.** 16 µg/mL

**Q.** What about the MIC (Acinetobacter baumannii [7]) of the same molecule?
**A.** 128 µg/mL

**Q.** And the MIC (Escherichia coli)?
**A.** 128 µg/mL

**Q.** What about the MIC (Acinetobacter baumannii [8]) of the same molecule?
**A.** > 128 µg/mL

**Q.** What does the source list for `CN[C@H](CC(C)C)C(=O)N[C@H]1C(=O)N[C@@H](CC(N)=O)C(=O)N[C@H]2C(=O)N[C@H]3C(=O)N[C@H](C(=O)N[C@H](C(=O)NCCC[S+](C)CC(O)COc4ccc(-c5ccccc5)cc4)c4cc(O)cc(O)c4-c4cc3ccc4O)[C@H](O)c3ccc(c(Cl)c3)Oc3cc2cc(c3O[C@@H]2O[C@H](CO)[C@@H](O)[C@H](O)[C@H]2O[C@H]2C[C@](C)(N)[C@H](O)[C@H](C)O2)Oc2ccc(cc2Cl)[C@H]1O.O=C([O-])C(F)(F)F` (stereo not given in full)?
**A.** MIC (Klebsiella pneumoniae): > 128 µg/mL; MIC (Staphylococcus aureus [1]): 0.5 µg/mL; MIC (Enterococcus faecium [2]): 1 µg/mL; MIC (Pseudomonas aeruginosa): > 128 µg/mL; MIC (Enterococcus faecium [3]): 4 µg/mL; MIC (Enterococcus faecium [4]): 8 µg/mL; MIC (Staphylococcus aureus [5]): ≤ 0.063 µg/mL; MIC (Enterococcus faecium [6]): 4 µg/mL; MIC (Acinetobacter baumannii [7]): 32 µg/mL; MIC (Escherichia coli): 16 µg/mL; MIC (Acinetobacter baumannii [8]): 128 µg/mL
